pIC50: −log10 of the molar value.
molecular target: CD73 (Homo sapiens (Human), UniProt P21589); assay: Biochemical Assay (CD73 inhibition, AMP hydrolysis, Malachite Green readout); conditions: CD73 0.3208 nM, AMP 15 μM, Tris-HCl pH 7.4, Malachite Green absorbance
Description: Example A1: Biochemical Assay
Assay Reaction Conditions
• Assay Volume: 70 μl • Reaction Volume: 50 μl • CD73: 0.3208 nM • AMP: 15 μM • Assay Buffer: 2 5 mM Tris-HCL, pH 7.4, 0.01% Brij-35, 0.01% BSA, 5 mM MgCl2 Assay Procedure:
Made dose titration of testing compounds in assay buffer, 10 points ½ log titrations in duplicates starting at 100 μM.
Added 25 μl of CD73 to each well for a final concentration of 320 pM.
Incubated at RT for 15 min.
Added 25 μl of AMP to each well for a final concentration of 15 μM.
Incubated at RT for 10 min.
Added 10 μl of Malachite Green Reagent A, incubate at RT for 10 min.
Added 10 μl of Malachite Green Reagent B, incubate at RT for 45 min. […]
The ability of the compounds disclosed herein to inhibit CD73 activity was quantified and the respective IC50 values were determined. Table 1 provides the biochemical IC50 values of compounds disclosed herein.

CD73, sequence (P21589 27-574): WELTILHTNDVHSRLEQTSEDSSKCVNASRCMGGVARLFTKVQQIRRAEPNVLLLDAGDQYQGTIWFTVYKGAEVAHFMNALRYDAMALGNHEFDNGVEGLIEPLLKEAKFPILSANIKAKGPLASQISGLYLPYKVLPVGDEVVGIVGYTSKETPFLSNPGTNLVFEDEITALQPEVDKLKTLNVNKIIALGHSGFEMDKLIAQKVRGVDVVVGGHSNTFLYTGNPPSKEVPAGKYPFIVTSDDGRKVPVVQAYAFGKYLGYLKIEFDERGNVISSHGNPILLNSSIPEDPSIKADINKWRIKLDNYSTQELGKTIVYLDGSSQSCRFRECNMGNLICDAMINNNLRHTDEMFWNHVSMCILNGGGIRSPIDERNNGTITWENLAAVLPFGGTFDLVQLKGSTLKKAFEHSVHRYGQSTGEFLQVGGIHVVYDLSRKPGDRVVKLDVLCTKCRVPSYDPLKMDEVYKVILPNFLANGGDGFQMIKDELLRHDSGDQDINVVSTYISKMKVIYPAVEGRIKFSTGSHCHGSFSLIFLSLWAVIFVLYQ

| SMILES | pIC50 |
| --- | --- |
| O=C(CP(=O)(O)O)N(Cc1ccccc1)C[C@H]1O[C@@H](n2ncc3c(NCc4ccccc4Cl)nc(Cl)nc32)[C@H](O)[C@@H]1O [Example 28, (2-(benzyl(((2R,3S,4R,5R)-5-(6-chloro-4-((2-chlorobenzyl)amino)-1H-pyrazolo[3,4-d]pyrimidin-1-yl)-3,4-dihydroxytetrahydrofuran-2-yl)methyl)amino)-2-oxoethyl)phosphonic acid] | < 6.00 |
| O=P(O)(O)COC[C@H]1O[C@@H](n2ncc3c(NCc4cccc(F)c4)nc(Cl)nc32)[C@H](O)[C@@H]1O [Example 29, ((((2R,3S,4R,5R)-5-(6-chloro-4-((3-fluorobenzyl)amino)-1H-pyrazolo[3,4-d]pyrimidin-1-yl)-3,4-dihydroxytetrahydrofuran-2-yl)methoxy)methyl)phosphonic acid] | ≥ 6.30 |
| O=P(O)(O)COC[C@H]1O[C@@H](n2nnc3c(NCc4ccccc4Cl)nc(Cl)nc32)[C@H](O)[C@@H]1O [Example 30, ((((2R,3S,4R,5R)-5-(5-chloro-7-((2-chlorobenzyl)pamino)-3H-[1,2,3]triazolo[4,5-d]pyrimidin-3-yl)-3,4-dihydroxytetrahydrofuran-2-yl)methoxy)methyl)phosphonic acid] | ≥ 6.30 |
| CN(c1nc(Cl)nc2c1cnn2[C@@H]1O[C@H](COCP(=O)(O)O)[C@@H](O)[C@H]1O)[C@H]1CCc2ccccc21 [Example 31, ((((2R,3S,4R,5R)-5-(6-chloro-4-(((S)-2,3-dihydro-1H-inden-1-yl)(methyl)amino)-1H-pyrazolo[3,4-d]pyrimidin-1-yl)-3,4-dihydroxytetrahydrofuran-2-yl)methoxy)methyl)phosphonic acid] | ≥ 6.30 |
| O=P(O)(O)COC[C@H]1O[C@@H](n2ncc3c(NCc4cccc(C(F)(F)F)c4)nc(Cl)nc32)[C@H](O)[C@@H]1O [Example 32, ((((2R,3S,4R,5R)-5-(6-chloro-4-((3-(trifluoromethyl)benzyl)amino)-1H-pyrazolo[3,4-d]pyrimidin-1-yl)-3,4-dihydroxytetrahydrofuran-2-yl)methoxy)methyl)phosphonic acid] | ≥ 6.30 |
| C[C@H](Nc1nc(Cl)nc2c1cnn2[C@@H]1O[C@H](COCP(=O)(O)O)[C@@H](O)[C@H]1O)c1ccccc1Cl [Example 33, ((((2R,3S,4R,5R)-5-(6-chloro-4-(((S)-1-(2-chlorophenyl)ethyl)amino)-1H-pyrazolo[3,4-d]pyrimidin-1-yl)-3,4-dihydroxytetrahydrofuran-2-yl)methoxy)methyl)phosphonic acid] | ≥ 6.30 |
| C[C@H](Nc1nc(Cl)nc2c1cnn2[C@@H]1O[C@H](COCP(=O)(O)O)[C@@H](O)[C@H]1O)c1cccc(Cl)c1 [Example 34, ((((2R,3S,4R,5R)-5-(6-chloro-4-(((S)-1-(3-chlorophenyl)ethyl)amino)-1H-pyrazolo[3,4-d]pyrimidin-1-yl)-3,4-dihydroxytetrahydrofuran-2-yl)methoxy)methyl)phosphonic acid] | ≥ 6.30 |
| C[C@@H](c1cccc(Cl)c1)N(C)c1nc(Cl)nc2c1cnn2[C@@H]1O[C@H](COCP(=O)(O)O)[C@@H](O)[C@H]1O [Example 36] | < 6.00 |

Second part, the compound after the results:

| pIC50 | SMILES |
| --- | --- |
| ≥ 6.30 | CN(Cc1cccc(Cl)c1)c1nc(Cl)nc2c1cnn2[C@@H]1O[C@H](COCP(=O)(O)O)[C@@H](O)[C@H]1O [Example 37, ((((2R,3S,4R,5R)-5-(6-chloro-4-((3-chlorobenzyl)(methyl)amino)-1H-pyrazolo[3,4-d]pyrimidin-1-yl)-3,4-dihydroxytetrahydrofuran-2-yl)methoxy)methyl)phosphonic acid] |
| ≥ 6.30 | O=P(O)(O)COC[C@H]1O[C@@H](n2ncc3c(NCC4CC4)nc(Cl)nc32)[C@H](O)[C@@H]1O [Example 38, ((((2R,3S,4R,5R)-5-(6-chloro-4-((cyclopropylmethyl)amino)-1H-pyrazolo[3,4-d]pyrimidin-1-yl)-3,4-dihydroxytetrahydrofuran-2-yl)methoxy)methyl)phosphonic acid] |
| ≥ 6.30 | CN(Cc1cccc(Cl)c1)c1nc(Cl)nc2c1nnn2[C@@H]1O[C@H](COCP(=O)(O)O)[C@@H](O)[C@H]1O [Example 39, ((((2R,3S,4R,5R)-5-(5-chloro-7-((3-chlorobenzyl)(methyl)amino)-3H-[1,2,3]triazolo[4,5-d]pyrimidin-3-yl)-3,4-dihydroxytetrahydrofuran-2-yl)methoxy)methyl)phosphonic acid] |
| ≥ 6.30 | O=P(O)(O)COC[C@H]1O[C@@H](n2ccc3c(NCc4ccccc4Cl)nc(Cl)nc32)[C@H](O)[C@@H]1O [Example 40, ((((2R,3S,4R,5R)-5-(2-chloro-4-((2-chlorobenzyl)amino)-7H-pyrrolo[2,3-d]pyrimidin-7-yl)-3,4-dihydroxytetrahydrofuran-2-yl)methoxy)methyl)phosphonic acid] |
| ≥ 6.30 | Cc1cccc(CNc2nc(Cl)nc3c2cnn3[C@@H]2O[C@H](COCP(=O)(O)O)[C@@H](O)[C@H]2O)c1 [Example 41, ((((2R,3S,4R,5R)-5-(6-chloro-4-((3-methylbenzyl)amino)-1H-pyrazolo[3,4-d]pyrimidin-1-yl)-3,4-dihydroxytetrahydrofuran-2-yl)methoxy)methyl)phosphonic acid] |
| ≥ 6.30 | O=P(O)(O)COC[C@H]1O[C@@H](n2ncc3c(N4CCOCC4)nc(Cl)nc32)[C@H](O)[C@@H]1O [Example 42, ((((2R,3S,4R,5R)-5-(6-chloro-4-morpholino-1H-pyrazolo[3,4-d]pyrimidin-1-yl)-3,4-dihydroxytetrahydrofuran-2-yl)methoxy)methyl)phosphonic acid] |
| ≥ 6.30 | CCNc1nc(Cl)nc2c1cnn2[C@@H]1O[C@H](COCP(=O)(O)O)[C@@H](O)[C@H]1O [Example 43, ((((2R,3S,4R,5R)-5-(6-chloro-4-(ethylamino)-1H-pyrazolo[3,4-d]pyrimidin-1-yl)-3,4-dihydroxytetrahydrofuran-2-yl)methoxy)methyl)phosphonic acid] |
| < 6.00 | Cc1nc(NCc2cccc(Cl)c2)c2cnn([C@@H]3O[C@H](COCP(=O)(O)O)[C@@H](O)[C@H]3O)c2n1 [Example 44, ((((2R,3S,4R,5R)-5-(4-((3-chlorobenzyl)amino)-6-methyl-1H-pyrazolo[3,4-d]pyrimidin-1-yl)-3,4-dihydroxytetrahydrofuran-2-yl)methoxy)methyl)phosphonic acid] |
| ≥ 6.30 | O=P(O)(O)COC[C@H]1O[C@@H](n2ncc3c(NC[C@H]4CCOC4)nc(Cl)nc32)[C@H](O)[C@@H]1O [Example 45, ((((2R,3S,4R,5R)-5-(6-chloro-4-((((R)-tetrahydrofuran-3-yl)methyl)amino)-1H-pyrazolo[3,4-d]pyrimidin-1-yl)-3,4-dihydroxytetrahydrofuran-2-yl)methoxy)methyl)phosphonic acid] |
| ≥ 6.30 | N#Cc1cccc(CNc2nc(Cl)nc3c2cnn3[C@@H]2O[C@H](COCP(=O)(O)O)[C@@H](O)[C@H]2O)c1 [Example 46, ((((2R,3S,4R,5R)-5-(6-chloro-4-((3-cyanobenzyl)amino)-1H-pyrazolo[3,4-d]pyrimidin-1-yl)-3,4-dihydroxytetrahydrofuran-2-yl)methoxy)methyl)phosphonic acid] |
| ≥ 6.30 | Cn1ncc2cccc(CNc3nc(Cl)nc4c3cnn4[C@@H]3O[C@H](COCP(=O)(O)O)[C@@H](O)[C@H]3O)c21 [Example 48, ((((2R,3S,4R,5R)-5-(6-chloro-4-(((1-methyl-1H-indazol-7-yl)methyl)amino)-1H-pyrazolo[3,4-d]pyrimidin-1-yl)-3,4-dihydroxytetrahydrofuran-2-yl)methoxy)methyl)phosphonic acid] |
